In publication PMC2813745, “A novel inhibitor of the PI3K/Akt pathway based on the structure of inositol 1,3,4,5,6-pentakisphosphate” (British Journal of Cancer, 2010):

Legend:
AKT2 (PKBβ) = AKT2 (PKBβ) (Homo sapiens, UniProt P31751); assay: SelectScreen kinase profiling: AKT2; format: biochemical; conditions: for IC50: 10-point titration, [ATP] 200 μM
Description: (§1) Effect of the indicated compounds on the activity of various kinases was assessed by SelectScreen Kinase Profiling Service (Invitrogen-Life Technologies, Paisley, UK). Assays were performed using 1 μM of the tested compounds and ATP concentration as indicated in the corresponding tables. In the case of […] a screen using 10 μM of the compound was also carried out, as indicated in the corresponding table.

PAK6 = PAK6 (Homo sapiens, UniProt Q9NQU5); assay: SelectScreen kinase profiling: PAK6; format: biochemical; conditions: [ATP] 10 µM
Description: as §1

PC3 xenografts = assay: Anti-tumour activity assay on PC3 xenografts; format: in vivo, nude athymic CD-1 nu/nu mice; conditions: for tumour growth: 14 consecutive days
Description: Male nude athymic CD-1 nu/nu mice (8-weeks old) were obtained from Harlan (San Pietro al Natisone, Italy) and maintained under specific pathogen-free conditions with food and water provided ad libitum. The general health status of the animals was monitored daily. Procedure involving animals and their care were conducted in conformity with the institutional guidelines that are in compliance with national and international laws and policies.
Exponentially growing PC3 cells were harvested, washed twice and resuspended in PBS at a concentration of 2.5 × 10^7 cells ml^−1. A suspension of 5 × 10^6 PC3 cells was injected subcutaneously (s.c.) into the left flank of the recipient mice. When tumours reached a size of ∼70 mm^3 (approximately 15 days after tumour cell implant), mice were divided into seven groups (n=7). […] Control mice were treated with water in an equal volume. The diameters of s.c. growing tumours were measured with a caliper twice a week and the experiment was ended at day 28 after the implantation.
The volume of s.c. growing tumours was calculated by the formula: Tumour weight (mg)=(length × width^2)/2. Differences in s.c tumour growth between the treatment groups were evaluated with a one-way ANOVA followed by Fisher's test using the StatView statistical package (SAS Institute, Cary, NC, USA). The percentage of tumour growth was calculated as T/C%=(RTV-treated animals/RTV-control animals) × 100, where RTV was the mean relative tumour volume calculated as RTV=Vt/V0. Vt was the tumour volume on the day of measurement and V0 was the tumour volume at the beginning of the treatment. The percentage of tumour weight inhibition (TWI%) was calculated using the formula: TWI%=100–T/C%. The log cell kill (LCK) was calculated using the formula: LCK=T−C/3.32 × Td, where T−C is the tumour growth delay calculated as the difference in median time (in days) required for the tumours in the treatment (T) and control group (C) to reach a predetermined size (i.e., 1000 mg). Td is the tumour volume doubling time in days, determined in the exponential growth phase of the control group from a best-fit straight line. […]
The inositol compounds (12.5–25–50 mg kg^−1 day^−1) and vehicle (water) were given daily by intraperitoneal (i.p.) injections for 14 consecutive days (days 15–28). Tumour size was assessed twice weekly. (A, B) Tumour growth in 2-O-Bn-InsP5-treated mice (A) and InsP5-treated mice (B) compared with control group measured for the duration of the experiment. Results are expressed as mean±s.e. […] The percentage of tumour weight inhibition (TWI%), the tumour growth delay (T−C) and the log cell kill (LCK) were calculated as described in the MATERIALS AND METHODS section. […] Phosphorylation of Akt at its residues Ser473 and Thr308 was assessed by using specific antibodies. […]

GRK5 = GRK5 (Homo sapiens, UniProt P34947); assay: SelectScreen kinase profiling: GRK5; format: biochemical; conditions: 1 µM compound; [ATP] 5 µM
Description: as §1

RPS6KB1 (p70S6K) = RPS6KB1 (p70S6K) (Homo sapiens, UniProt P23443); assay: SelectScreen kinase profiling: RPS6KB1; format: biochemical; conditions: [ATP] 10 µM
Description: as §1

PRKCE (PKCε) = PRKCE (PKCε) (Homo sapiens, UniProt Q02156); assay: SelectScreen kinase profiling: PRKCE; format: biochemical; conditions: [ATP] 25 µM
Description: as §1

GSK3B (GSK3β) = GSK3B (GSK3β) (Homo sapiens, UniProt P49841); assay: SelectScreen kinase profiling: GSK3B; format: biochemical; conditions: [ATP] 10 µM
Description: as §1

MAPKAPK2 = MAPKAPK2 (Homo sapiens, UniProt P49137); assay: SelectScreen kinase profiling: MAPKAPK2; format: biochemical; conditions: 1 µM compound; [ATP] 5 µM
Description: as §1

RAF1 (cRAF) Y340D Y341D = RAF1 (cRAF) Y340D Y341D (Homo sapiens, UniProt P04049, Y340D/Y341D); assay: SelectScreen kinase profiling: RAF1; format: biochemical; conditions: [ATP] 100 µM
Description: as §1

BTK = BTK (Homo sapiens, UniProt Q06187); assay: SelectScreen kinase profiling: BTK; format: biochemical; conditions: [ATP] 25 µM
Description: as §1

AMPK A1/B1/G1 = AMPK A1/B1/G1 (Homo sapiens, UniProt Q13131); assay: SelectScreen kinase profiling: AMPK A1/B1/G1; format: biochemical; conditions: 1 µM compound; [ATP] 50 µM
Description: as §1

CLK1 = CLK1 (Homo sapiens, UniProt P49759); assay: SelectScreen kinase profiling: CLK1; format: biochemical; conditions: [ATP] 25 µM
Description: as §1

AKT3 (PKBγ) = AKT3 (PKBγ) (Homo sapiens, UniProt Q9Y243); assay: SelectScreen kinase profiling: AKT3; format: biochemical; conditions: [ATP] 100 µM
Description: as §1

CDK5/p25 = CDK5/p25 (Homo sapiens, UniProt Q00535); assay: SelectScreen kinase profiling: CDK5/p25; format: biochemical; conditions: [ATP] 10 µM
Description: as §1

CSNK2A2 (CK2α2) = CSNK2A2 (CK2α2) (Homo sapiens, UniProt P19784); assay: SelectScreen kinase profiling: CSNK2A2; format: biochemical; conditions: [ATP] 50 µM
Description: as §1

AURKA (Aurora A) = AURKA (Aurora A) (Homo sapiens, UniProt O14965); assay: SelectScreen kinase profiling: AURKA; format: biochemical; conditions: 1 µM compound; [ATP] 10 µM
Description: as §1

ROCK1 = ROCK1 (Homo sapiens, UniProt Q13464); assay: SelectScreen kinase profiling: ROCK1; format: biochemical; conditions: [ATP] 5 µM
Description: as §1

Water solubility = format: physicochemical
ABL1 = ABL1 (Homo sapiens, UniProt P00519); assay: SelectScreen kinase profiling: ABL1; format: biochemical; conditions: [ATP] 10 µM
Description: as §1

PRKCZ (PKCζ) = PRKCZ (PKCζ) (Homo sapiens, UniProt Q05513); assay: SelectScreen kinase profiling: PRKCZ; format: biochemical; conditions: [ATP] 5 µM
Description: as §1

AMPK A2/B1/G1 = AMPK A2/B1/G1 (Homo sapiens, UniProt P54646); assay: SelectScreen kinase profiling: AMPK A2/B1/G1; format: biochemical; conditions: 1 µM compound; [ATP] 150 µM
Description: as §1

Chain of AKT2 (PKBβ) (P31751 whole entry): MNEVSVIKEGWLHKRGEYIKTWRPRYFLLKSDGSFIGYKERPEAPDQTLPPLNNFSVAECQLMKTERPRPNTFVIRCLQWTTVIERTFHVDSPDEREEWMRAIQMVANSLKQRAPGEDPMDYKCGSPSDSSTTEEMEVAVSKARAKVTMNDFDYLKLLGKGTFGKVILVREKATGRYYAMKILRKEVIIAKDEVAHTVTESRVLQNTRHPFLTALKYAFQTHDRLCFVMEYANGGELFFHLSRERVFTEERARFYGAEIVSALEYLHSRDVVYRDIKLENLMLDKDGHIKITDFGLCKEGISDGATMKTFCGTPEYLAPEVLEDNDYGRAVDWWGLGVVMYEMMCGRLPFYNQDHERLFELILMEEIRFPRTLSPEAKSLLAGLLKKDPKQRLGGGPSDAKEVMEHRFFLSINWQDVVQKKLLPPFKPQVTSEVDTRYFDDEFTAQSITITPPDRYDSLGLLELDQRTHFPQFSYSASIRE
Chain of ROCK1 (Q13464 whole entry): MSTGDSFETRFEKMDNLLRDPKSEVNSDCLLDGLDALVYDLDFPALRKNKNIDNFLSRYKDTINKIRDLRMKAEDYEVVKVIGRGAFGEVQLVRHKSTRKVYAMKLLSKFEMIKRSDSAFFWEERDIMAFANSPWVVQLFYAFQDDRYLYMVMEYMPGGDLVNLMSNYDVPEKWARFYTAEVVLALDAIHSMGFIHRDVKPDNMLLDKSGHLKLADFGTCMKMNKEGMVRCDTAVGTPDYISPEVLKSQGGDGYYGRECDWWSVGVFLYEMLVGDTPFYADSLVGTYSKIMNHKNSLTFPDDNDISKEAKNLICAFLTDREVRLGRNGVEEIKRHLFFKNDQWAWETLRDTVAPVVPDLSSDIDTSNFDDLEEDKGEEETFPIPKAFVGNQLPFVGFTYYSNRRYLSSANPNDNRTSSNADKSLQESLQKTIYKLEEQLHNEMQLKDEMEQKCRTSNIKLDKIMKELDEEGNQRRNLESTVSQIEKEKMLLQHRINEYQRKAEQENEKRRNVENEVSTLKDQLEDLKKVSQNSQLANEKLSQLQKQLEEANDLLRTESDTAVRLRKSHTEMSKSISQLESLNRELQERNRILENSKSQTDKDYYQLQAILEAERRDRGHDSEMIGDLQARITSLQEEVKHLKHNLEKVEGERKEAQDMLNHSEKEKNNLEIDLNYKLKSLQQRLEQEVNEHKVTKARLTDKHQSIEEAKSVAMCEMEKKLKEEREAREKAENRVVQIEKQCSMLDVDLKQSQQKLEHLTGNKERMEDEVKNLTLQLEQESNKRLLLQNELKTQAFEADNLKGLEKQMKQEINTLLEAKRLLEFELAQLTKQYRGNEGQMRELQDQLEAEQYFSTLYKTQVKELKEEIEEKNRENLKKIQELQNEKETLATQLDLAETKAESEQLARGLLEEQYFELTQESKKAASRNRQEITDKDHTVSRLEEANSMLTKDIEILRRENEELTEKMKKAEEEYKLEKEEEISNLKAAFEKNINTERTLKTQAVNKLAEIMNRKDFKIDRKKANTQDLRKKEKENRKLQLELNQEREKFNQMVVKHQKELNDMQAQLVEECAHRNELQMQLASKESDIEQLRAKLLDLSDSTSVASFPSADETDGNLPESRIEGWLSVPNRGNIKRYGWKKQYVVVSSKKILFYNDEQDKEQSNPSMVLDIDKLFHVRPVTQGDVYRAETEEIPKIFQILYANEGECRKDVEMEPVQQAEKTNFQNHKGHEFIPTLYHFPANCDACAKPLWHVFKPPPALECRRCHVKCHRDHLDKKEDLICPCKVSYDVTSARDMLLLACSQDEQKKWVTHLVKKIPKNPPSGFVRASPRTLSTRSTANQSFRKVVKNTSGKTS
Chain of MAPKAPK2 (P49137 whole entry): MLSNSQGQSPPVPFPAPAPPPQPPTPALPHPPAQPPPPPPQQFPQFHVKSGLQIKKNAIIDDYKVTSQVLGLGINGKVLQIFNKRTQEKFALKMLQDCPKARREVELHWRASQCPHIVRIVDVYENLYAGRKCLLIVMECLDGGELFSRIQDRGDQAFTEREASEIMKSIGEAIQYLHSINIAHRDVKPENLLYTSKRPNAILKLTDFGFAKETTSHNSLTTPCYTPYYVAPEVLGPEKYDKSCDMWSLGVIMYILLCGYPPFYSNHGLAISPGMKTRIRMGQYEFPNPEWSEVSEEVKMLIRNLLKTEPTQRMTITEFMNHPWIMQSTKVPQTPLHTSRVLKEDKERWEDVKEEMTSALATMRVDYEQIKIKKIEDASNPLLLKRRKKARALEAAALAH
Chain of RAF1 (cRAF) Y340D Y341D (P04049 whole entry Y340D/Y341D): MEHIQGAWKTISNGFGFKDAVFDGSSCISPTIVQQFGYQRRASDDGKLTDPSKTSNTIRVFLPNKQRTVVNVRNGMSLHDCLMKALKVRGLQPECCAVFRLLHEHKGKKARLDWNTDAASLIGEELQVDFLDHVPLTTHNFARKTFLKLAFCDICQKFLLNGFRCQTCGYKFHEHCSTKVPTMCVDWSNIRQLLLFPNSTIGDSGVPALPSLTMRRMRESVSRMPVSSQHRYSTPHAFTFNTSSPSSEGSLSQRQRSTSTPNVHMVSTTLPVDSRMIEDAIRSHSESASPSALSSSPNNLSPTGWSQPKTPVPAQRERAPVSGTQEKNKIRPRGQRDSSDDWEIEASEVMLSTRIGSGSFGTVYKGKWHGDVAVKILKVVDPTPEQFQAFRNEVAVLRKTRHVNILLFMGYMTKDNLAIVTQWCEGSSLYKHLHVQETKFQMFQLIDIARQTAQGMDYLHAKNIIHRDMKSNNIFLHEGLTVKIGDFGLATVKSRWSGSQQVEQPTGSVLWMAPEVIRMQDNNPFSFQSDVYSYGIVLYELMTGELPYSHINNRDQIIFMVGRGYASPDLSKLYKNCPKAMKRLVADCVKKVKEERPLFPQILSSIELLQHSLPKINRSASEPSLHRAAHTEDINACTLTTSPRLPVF
Chain of AURKA (Aurora A) (O14965 whole entry): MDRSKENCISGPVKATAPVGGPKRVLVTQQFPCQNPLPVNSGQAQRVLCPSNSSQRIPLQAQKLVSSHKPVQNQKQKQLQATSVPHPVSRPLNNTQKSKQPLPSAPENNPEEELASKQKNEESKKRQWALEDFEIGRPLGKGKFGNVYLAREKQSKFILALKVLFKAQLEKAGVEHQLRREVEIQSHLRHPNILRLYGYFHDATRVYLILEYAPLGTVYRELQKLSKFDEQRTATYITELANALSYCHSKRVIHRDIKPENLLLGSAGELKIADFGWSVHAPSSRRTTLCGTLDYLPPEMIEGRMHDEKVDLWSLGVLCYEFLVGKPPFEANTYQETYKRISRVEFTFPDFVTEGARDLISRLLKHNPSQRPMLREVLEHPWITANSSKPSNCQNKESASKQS
Chain of ABL1 (P00519 whole entry): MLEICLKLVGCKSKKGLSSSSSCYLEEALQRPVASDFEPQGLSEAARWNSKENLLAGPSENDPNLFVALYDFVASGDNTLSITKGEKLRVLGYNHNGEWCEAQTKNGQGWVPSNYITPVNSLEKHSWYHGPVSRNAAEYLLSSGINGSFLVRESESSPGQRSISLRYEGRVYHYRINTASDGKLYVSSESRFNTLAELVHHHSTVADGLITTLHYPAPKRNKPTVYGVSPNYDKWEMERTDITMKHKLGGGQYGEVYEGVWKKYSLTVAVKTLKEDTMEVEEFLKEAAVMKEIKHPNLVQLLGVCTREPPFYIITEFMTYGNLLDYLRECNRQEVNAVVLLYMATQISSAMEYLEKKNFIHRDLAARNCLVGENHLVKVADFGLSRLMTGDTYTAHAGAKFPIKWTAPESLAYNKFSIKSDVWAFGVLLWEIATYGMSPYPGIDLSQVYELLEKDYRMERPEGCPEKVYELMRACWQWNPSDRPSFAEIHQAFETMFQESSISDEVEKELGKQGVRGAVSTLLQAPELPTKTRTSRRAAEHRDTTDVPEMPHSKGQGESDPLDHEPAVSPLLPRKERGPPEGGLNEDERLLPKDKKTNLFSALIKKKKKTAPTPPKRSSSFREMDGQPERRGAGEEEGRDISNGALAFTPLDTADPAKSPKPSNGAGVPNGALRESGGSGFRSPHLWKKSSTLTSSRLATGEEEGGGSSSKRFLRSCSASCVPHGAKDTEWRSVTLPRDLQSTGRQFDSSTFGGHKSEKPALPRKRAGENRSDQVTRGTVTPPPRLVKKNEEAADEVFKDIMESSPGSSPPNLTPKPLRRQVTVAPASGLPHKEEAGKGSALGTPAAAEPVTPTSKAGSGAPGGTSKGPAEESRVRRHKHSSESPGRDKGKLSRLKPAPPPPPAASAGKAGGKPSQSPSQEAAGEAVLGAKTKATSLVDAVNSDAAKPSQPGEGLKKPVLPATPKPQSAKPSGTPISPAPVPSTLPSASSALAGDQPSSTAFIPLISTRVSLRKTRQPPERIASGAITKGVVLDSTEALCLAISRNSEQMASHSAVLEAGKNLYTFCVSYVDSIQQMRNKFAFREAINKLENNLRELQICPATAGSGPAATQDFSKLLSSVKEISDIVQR
Chain of AKT3 (PKBγ) (Q9Y243 whole entry): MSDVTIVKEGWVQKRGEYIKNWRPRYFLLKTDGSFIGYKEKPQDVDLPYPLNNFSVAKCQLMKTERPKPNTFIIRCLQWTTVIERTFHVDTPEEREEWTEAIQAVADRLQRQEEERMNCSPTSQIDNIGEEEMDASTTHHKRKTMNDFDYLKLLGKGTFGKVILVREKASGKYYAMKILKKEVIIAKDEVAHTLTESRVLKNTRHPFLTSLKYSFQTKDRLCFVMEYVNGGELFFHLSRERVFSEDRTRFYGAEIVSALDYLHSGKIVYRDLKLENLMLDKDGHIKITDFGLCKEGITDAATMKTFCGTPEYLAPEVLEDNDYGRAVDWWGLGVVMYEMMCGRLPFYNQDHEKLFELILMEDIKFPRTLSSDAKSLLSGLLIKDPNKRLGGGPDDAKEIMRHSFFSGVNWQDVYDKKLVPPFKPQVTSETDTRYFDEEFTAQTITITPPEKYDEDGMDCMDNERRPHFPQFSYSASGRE

Compound: O=P(O)(O)OC1C(OCc2ccccc2)C(OP(=O)(O)O)C(OP(=O)(O)O)C(OP(=O)(O)O)C1OP(=O)(O)O (stereo not drawn) [2-O-Bn-InsP5, 2-O-benzyl-myo-inositol 1,3,4,5,6-pentakisphosphate]
- inhibition at 1 µM (AKT2 (PKBβ); 1 µM compound, [ATP] 200 µM): 16%
- IC50 (AKT2 (PKBβ)): 77 µM
- inhibition at 1 µM (PAK6; 1 µM compound): 9%
- T-C (tumour growth delay) (PC3 xenografts; 50 mg kg^-1, i.p., qdx15): ~9 days
- tumour growth (PC3 xenografts; 50 mg kg^−1 daily i.p., significant from day 22): strong reduction in tumour growth
- tumour growth (PC3 xenografts; 12.5 and 25 mg kg^−1 daily i.p., vs untreated mice): clearly decreased the growth of tumours
- inhibition at 1 µM (GRK5): 34%
- inhibition at 1 µM (RPS6KB1 (p70S6K); 1 µM compound): 17%
- inhibition at 1 µM (PRKCE (PKCε); 1 µM compound): 14%
- inhibition at 1 µM (GSK3B (GSK3β); 1 µM compound): 11%
- inhibition at 1 µM (MAPKAPK2): 20%
- inhibition at 1 µM (RAF1 (cRAF) Y340D Y341D; 1 µM compound): 5%
- inhibition at 1 µM (BTK; 1 µM compound): 5%
- inhibition at 1 µM (AMPK A1/B1/G1): 16%
- inhibition at 1 µM (CLK1; 1 µM compound): -4%
- inhibition at 1 µM (AKT3 (PKBγ); 1 µM compound): 10%
- inhibition at 1 µM (CDK5/p25; 1 µM compound): 3%
- inhibition at 1 µM (CSNK2A2 (CK2α2); 1 µM compound): 2%
- inhibition at 1 µM (AURKA (Aurora A)): 34%
- inhibition at 1 µM (ROCK1; 1 µM compound): 7%
- water solubility (Water solubility): water soluble compound
- inhibition at 1 µM (ABL1; 1 µM compound): 0%
- inhibition at 1 µM (PRKCZ (PKCζ); 1 µM compound): 10%
- inhibition at 1 µM (AMPK A2/B1/G1): 25%

Compound: O=P(O)(O)OC1C(O)C(OP(=O)(O)O)C(OP(=O)(O)O)C(OP(=O)(O)O)C1OP(=O)(O)O (stereo not drawn) [InsP5, inositol 1,3,4,5,6-pentakisphosphate]
- IC50 (AKT2 (PKBβ)): 38.3 µM
- inhibition at 10 µM (PAK6; 10 µM compound): 20%
- tumour growth (PC3 xenografts; up to 50 mg kg^−1 daily i.p.): no effect
- inhibition at 1 µM (GRK5): 37%
- inhibition at 10 µM (RPS6KB1 (p70S6K); 10 µM compound): 9%
- inhibition at 10 µM (PRKCE (PKCε); 10 µM compound): 0%
- inhibition at 10 µM (GSK3B (GSK3β); 10 µM compound): 20%
- inhibition at 1 µM (MAPKAPK2): 4%
- inhibition at 10 µM (RAF1 (cRAF) Y340D Y341D; 10 µM compound): 18%
- inhibition at 10 µM (BTK; 10 µM compound): 8%
- inhibition at 1 µM (AMPK A1/B1/G1): 4%
- inhibition at 10 µM (CLK1; 10 µM compound): 9%
- inhibition at 10 µM (AKT3 (PKBγ); 10 µM compound): 10%
- inhibition at 10 µM (CDK5/p25; 10 µM compound): 13%
- inhibition at 10 µM (CSNK2A2 (CK2α2); 10 µM compound): 18%
- inhibition at 1 µM (AURKA (Aurora A)): 1%
- inhibition at 10 µM (ROCK1; 10 µM compound): 20%
- water solubility (Water solubility): water soluble compound
- inhibition at 10 µM (ABL1; 10 µM compound): -16%
- inhibition at 10 µM (PRKCZ (PKCζ); 10 µM compound): -8%
- inhibition at 1 µM (AMPK A2/B1/G1): 7%
